Measured values: patent US6737383B1, “Herbicidal oxadiazolidines” (priority 1999, dated 2004)

Assays:
pigweed = assay: Test B pre/postemergence pigweed; format: in vivo, Amaranthus retroflexus
Outline: (§1)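 Response is a visual 0-to-10 score relative to untreated plants, where 0 means no effect and 10 means complete control, taken twelve to sixteen days after application. Treatments went onto soil at planting and onto foliage of 1- to 4-leaf plants, using a surfactant-containing non-phytotoxic solvent.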

rape = assay: Test B pre/postemergence rape; format: in vivo, Brassica napus
Outline: as §1

sugar beet = assay: Test B pre/postemergence sugar beet; format: in vivo, Beta vulgaris
Outline: as §1

soybean = assay: Test B pre/postemergence soybean; format: in vivo, Glycine max
Outline: as §1

[1] = Postemergence, Rate 250 g/ha, scale 0 to 10
[2] = Postemergence, Rate 500 g/ha, scale of 0 to 10 where 0 is no effect and 10 is complete control
[3] = Preemergence, Rate 62 g/ha, scale 0 to 10 (0 no effect, 10 complete control)
[4] = Preemergence, Rate 125 g/ha, scale of 0 to 10 where 0 is no effect and 10 is complete control
[5] = Preemergence, Rate 250 g/ha, scale 0 to 10, 0 is no effect, 10 is complete control
[6] = Preemergence, Rate 500 g/ha, scale 0 to 10, 0 is no effect, 10 is complete control
[7] = Rate 125 g/ha, Postemergence, scale 0 to 10, 0 is no effect, 10 is complete control
[8] = Preemergence, Rate 62 g/ha, scale of 0 to 10 where 0 is no effect and 10 is complete control
[9] = Rate 62 g/ha, Postemergence, scale 0 to 10, 0 no effect, 10 complete control

| SMILES | Redroot pigweed plant response rating (pigweed; [1]) | Redroot pigweed plant response rating (pigweed; [2]) | Plant response rating, Redroot pigweed (pigweed; [4]) | Redroot pigweed plant response rating (pigweed; [5]) | Redroot pigweed plant response rating (pigweed; [6]) | Redroot pigweed plant response rating (pigweed; [7]) | Rape plant response rating (rape; [1]) | Rape plant response rating (rape; [2]) | Plant response rating, Rape (rape; [4]) | Rape plant response rating (rape; [5]) | Rape plant response rating (rape; [6]) | Rape plant response rating (rape; [7]) | Sugarbeets plant response rating (sugar beet; [1]) | Sugarbeets plant response rating (sugar beet; [2]) | Plant response rating, Sugarbeets (sugar beet; [4]) | Sugarbeets plant response rating (sugar beet; [5]) | Sugarbeets plant response rating (sugar beet; [6]) | Sugarbeets plant response rating (sugar beet; [7]) | Soybean plant response rating (soybean; [1]) | Soybean plant response rating (soybean; [2]) | further results |
| --- | --- | --- | --- | --- | --- | --- | --- | --- | --- | --- | --- | --- | --- | --- | --- | --- | --- | --- | --- | --- | --- |
| CC(C)N(C(=O)n1oc(=O)n(CC2=NOCCC2)c1=O)c1ccccc1 [Compound 430] | 3 | 3 | 0 | 2 | 7 | 2 | 0 | 0 | 0 | 0 | 4 | 0 | 0 | 0 | 0 | 0 | 0 | 0 | 3 | 3 | Plant response rating, Redroot pigweed (pigweed; [3]): 0; Plant response rating, Rape (rape; [3]): 0; Plant response rating, Sugarbeets (sugar beet; [3]): 0; Plant response rating, Soybean (soybean; [3]): 0; Plant response rating, Soybean (soybean; [4]): 0; Soybean plant response rating (soybean; [5]): 0; Soybean plant response rating (soybean; [6]): 0; Soybean plant response rating (soybean; [7]): 1 |
| CC(C)N(C(=O)n1oc(=O)n(CC#N)c1=O)c1ccc(F)cc1F [Compound 431] | 0 | 0 | 0 | 0 | 0 | 0 | 0 | 0 | 0 | 0 | 3 | 0 | 0 | 0 | 0 | 0 | 0 | 0 | 1 | 2 | Plant response rating, Redroot pigweed (pigweed; [3]): 0; Plant response rating, Rape (rape; [3]): 0; Plant response rating, Sugarbeets (sugar beet; [3]): 0; Plant response rating, Soybean (soybean; [3]): 0; Plant response rating, Soybean (soybean; [4]): 0; Soybean plant response rating (soybean; [5]): 0; Soybean plant response rating (soybean; [6]): 0; Soybean plant response rating (soybean; [7]): 1 |
| CC(C)N(C(=O)n1oc(=O)n(CCC#N)c1=O)c1ccc(F)cc1F [Compound 433] | 2 | 3 | 4 | 7 | 10 | 0 | 0 | 0 | 0 | 3 | 7 | 0 | 0 | 0 | 2 | 4 | 8 | 0 | 2 | 2 | Plant response rating, Redroot pigweed (pigweed; [3]): 0; Plant response rating, Rape (rape; [3]): 0; Plant response rating, Sugarbeets (sugar beet; [3]): 0; Plant response rating, Soybean (soybean; [3]): 0; Plant response rating, Soybean (soybean; [4]): 0; Soybean plant response rating (soybean; [5]): 0; Soybean plant response rating (soybean; [6]): 0; Soybean plant response rating (soybean; [7]): 2 |
| CC(C)N(C(=O)n1oc(=O)n(CCl)c1=O)c1ccc(F)cc1F [Compound 437] | 0 | 0 | 0 | 0 | 0 | 0 | 0 | 0 | 0 | 0 | 0 | 0 | 0 | 0 | 0 | 0 | 0 | 0 | 0 | 2 | Plant response rating, Redroot pigweed (pigweed; [8]): 0; Redroot pigweed plant response rating (pigweed; [9]): 0; Plant response rating, Rape (rape; [8]): 0; Rape plant response rating (rape; [9]): 0; Plant response rating, Sugarbeets (sugar beet; [8]): 0; Sugarbeets plant response rating (sugar beet; [9]): 0; Plant response rating, Soybean (soybean; [8]): 0; Plant response rating, Soybean (soybean; [4]): 0; Soybean plant response rating (soybean; [5]): 0; Soybean plant response rating (soybean; [6]): 0; Soybean plant response rating (soybean; [9]): 0; Soybean plant response rating (soybean; [7]): 0 |
| COC(C)n1c(=O)on(C(=O)N(c2ccc(F)cc2)C(C)C)c1=O (stereo not shown) [Compound 439] | 0 | 0 | 0 | 0 | 0 | 0 | 0 | 0 | 0 | 0 | 0 | 0 | 0 | 0 | 0 | 0 | 0 | 0 | 0 | 0 | Plant response rating, Redroot pigweed (pigweed; [8]): 0; Redroot pigweed plant response rating (pigweed; [9]): 0; Plant response rating, Rape (rape; [8]): 0; Rape plant response rating (rape; [9]): 0; Plant response rating, Sugarbeets (sugar beet; [8]): 0; Sugarbeets plant response rating (sugar beet; [9]): 0; Plant response rating, Soybean (soybean; [8]): 0; Plant response rating, Soybean (soybean; [4]): 0; Soybean plant response rating (soybean; [5]): 0; Soybean plant response rating (soybean; [6]): 0; Soybean plant response rating (soybean; [9]): 0; Soybean plant response rating (soybean; [7]): 0 |
